Experiments:
Experiment in all cases: relative viability (nuclei count vs DMSO), 5 days (fraction); higher = more cells survive
A-427 = test system: A-427
Outline: (§1)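 Nuclei were stained with Hoechst during a one-step fixation (final 0.05% Triton X-100, 1% formaldehyde, 1 ug/ml Hoechst) carried out 5 days after dosing, then counted on 4× images. The cells, lung cancer lines in 1536-well plates, had been dosed by pin tool the day after seeding with one drug alone or a fixed anchor-drug dose plus five library-drug doses (not always all listed) in √10 steps. Relative viability is the nuclei count in treated wells divided by that in vehicle wells, and each value is the median of duplicate plates.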

COR-L 105 = test system: COR-L 105
Outline: as §1

ChaGo-K-1 = test system: ChaGo-K-1
Outline: as §1

EKVX = test system: EKVX
Outline: as §1

EMC-BAC-2 = test system: EMC-BAC-2
Outline: as §1

H3255 = test system: H3255
Outline: as §1

HCC-366 = test system: HCC-366
Outline: as §1

LK-2 = test system: LK-2
Outline: as §1

LOU-NH91 = test system: LOU-NH91
Outline: as §1

NCI-H1666 = test system: NCI-H1666
Outline: as §1

NCI-H1734 = test system: NCI-H1734
Outline: as §1

NCI-H1755 = test system: NCI-H1755
Outline: as §1

NCI-H1975 = test system: NCI-H1975
Outline: as §1

NCI-H2170 = test system: NCI-H2170
Outline: as §1

NCI-H23 = test system: NCI-H23
Outline: as §1

NCI-H441 = test system: NCI-H441
Outline: as §1

NCI-H520 = test system: NCI-H520
Outline: as §1

NCI-H596 = test system: NCI-H596
Outline: as §1

PC-3 [JPC-3] = test system: PC-3 [JPC-3]
Outline: as §1

SK-MES-1 = test system: SK-MES-1
Outline: as §1

SW 900 = test system: SW 900
Outline: as §1

With `COc1cc2nccc(Oc3ccc(NC(=O)Nc4cc(C)on4)c(Cl)c3)c2cc1OC` [Tivozanib] + Cc1cc(Nc2cc(N3CCN(C)CC3)nc(Sc3ccc(NC(=O)C4CC4)cc3)n2)n[nH]1 [Tozasertib] (partner 0.1 µM) the relative viability (A-427; first compound 0.005 µM) was 0.179, the relative viability (A-427; first compound 0.01581 µM) was 0.23 and the relative viability (A-427; first compound 0.05 µM) was 0.251. The relative viability (A-427; first compound 0.1581 µM) was 0.281, the relative viability (A-427; first compound 0.5 µM) was 0.207 and the relative viability (COR-L 105; first compound 0.005 µM) was 0.366. For the same molecule, the relative viability (COR-L 105; first compound 0.01581 µM) was 0.371, the relative viability (COR-L 105; first compound 0.05 µM) was 0.406 and the relative viability (COR-L 105; first compound 0.1581 µM) was 0.374. For the same molecule, the relative viability (COR-L 105; first compound 0.5 µM) was 0.493, the relative viability (ChaGo-K-1; first compound 0.005 µM) was 0.226 and the relative viability (ChaGo-K-1; first compound 0.01581 µM) was 0.247. The relative viability (ChaGo-K-1; first compound 0.05 µM) was 0.216, the relative viability (ChaGo-K-1; first compound 0.1581 µM) was 0.256 and the relative viability (ChaGo-K-1; first compound 0.5 µM) was 0.186. For the same molecule, the relative viability (EKVX; first compound 0.005 µM) was 0.443, the relative viability (EKVX; first compound 0.01581 µM) was 0.356 and the relative viability (EKVX; first compound 0.05 µM) was 0.35. The relative viability (EKVX; first compound 0.1581 µM) was 0.47, the relative viability (EKVX; first compound 0.5 µM) was 0.474 and the relative viability (EMC-BAC-2; first compound 0.005 µM) was 0.255. It also gave a relative viability (EMC-BAC-2; first compound 0.01581 µM) of 0.3, a relative viability (EMC-BAC-2; first compound 0.05 µM) of 0.295 and a relative viability (EMC-BAC-2; first compound 0.1581 µM) of 0.326. The relative viability (EMC-BAC-2; first compound 0.5 µM) was 0.266, the relative viability (H3255; first compound 0.005 µM) was 0.745 and the relative viability (H3255; first compound 0.01581 µM) was 0.564. The relative viability (H3255; first compound 0.05 µM) was 0.626, the relative viability (H3255; first compound 0.1581 µM) was 0.804 and the relative viability (H3255; first compound 0.5 µM) was 0.565. It also gave a relative viability (HCC-366; first compound 0.005 µM) of 0.094, a relative viability (HCC-366; first compound 0.01581 µM) of 0.115 and a relative viability (HCC-366; first compound 0.05 µM) of 0.156. The relative viability (HCC-366; first compound 0.1581 µM) was 0.137, the relative viability (HCC-366; first compound 0.5 µM) was 0.111 and the relative viability (LK-2; first compound 0.005 µM) was 0.173. It also gave a relative viability (LK-2; first compound 0.01581 µM) of 0.175, a relative viability (LK-2; first compound 0.05 µM) of 0.159 and a relative viability (LK-2; first compound 0.1581 µM) of 0.172. It also gave a relative viability (LK-2; first compound 0.5 µM) of 0.177, a relative viability (LOU-NH91; first compound 0.005 µM) of 0.644 and a relative viability (LOU-NH91; first compound 0.01581 µM) of 0.669. It also gave a relative viability (LOU-NH91; first compound 0.05 µM) of 0.775, a relative viability (LOU-NH91; first compound 0.1581 µM) of 0.759 and a relative viability (LOU-NH91; first compound 0.5 µM) of 0.659. The relative viability (NCI-H1666; first compound 0.005 µM) was 0.538, the relative viability (NCI-H1666; first compound 0.01581 µM) was 0.605 and the relative viability (NCI-H1666; first compound 0.05 µM) was 0.668. The relative viability (NCI-H1666; first compound 0.1581 µM) was 0.628, the relative viability (NCI-H1666; first compound 0.5 µM) was 0.646 and the relative viability (NCI-H1734; first compound 0.005 µM) was 0.24. The relative viability (NCI-H1734; first compound 0.01581 µM) was 0.258, the relative viability (NCI-H1734; first compound 0.05 µM) was 0.26 and the relative viability (NCI-H1734; first compound 0.1581 µM) was 0.275. The relative viability (NCI-H1734; first compound 0.5 µM) was 0.252, the relative viability (NCI-H1755; first compound 0.005 µM) was 0.565 and the relative viability (NCI-H1755; first compound 0.01581 µM) was 0.581. It also gave a relative viability (NCI-H1755; first compound 0.05 µM) of 0.588, a relative viability (NCI-H1755; first compound 0.1581 µM) of 0.666 and a relative viability (NCI-H1755; first compound 0.5 µM) of 0.531. The relative viability (NCI-H1975; first compound 0.005 µM) was 0.676, the relative viability (NCI-H1975; first compound 0.01581 µM) was 0.739 and the relative viability (NCI-H1975; first compound 0.05 µM) was 0.789. For the same molecule, the relative viability (NCI-H1975; first compound 0.1581 µM) was 0.691, the relative viability (NCI-H1975; first compound 0.5 µM) was 0.567 and the relative viability (NCI-H2170; first compound 0.005 µM) was 0.673. For the same molecule, the relative viability (NCI-H2170; first compound 0.01581 µM) was 0.685, the relative viability (NCI-H2170; first compound 0.05 µM) was 0.801 and the relative viability (NCI-H2170; first compound 0.1581 µM) was 0.671. For the same molecule, the relative viability (NCI-H2170; first compound 0.5 µM) was 0.784, the relative viability (NCI-H23; first compound 0.005 µM) was 0.324 and the relative viability (NCI-H23; first compound 0.01581 µM) was 0.323. It also gave a relative viability (NCI-H23; first compound 0.05 µM) of 0.547, a relative viability (NCI-H23; first compound 0.1581 µM) of 0.406 and a relative viability (NCI-H23; first compound 0.5 µM) of 0.427. It also gave a relative viability (NCI-H441; first compound 0.005 µM) of 0.682, a relative viability (NCI-H441; first compound 0.01581 µM) of 0.635 and a relative viability (NCI-H441; first compound 0.05 µM) of 0.596. For the same molecule, the relative viability (NCI-H441; first compound 0.1581 µM) was 0.768, the relative viability (NCI-H441; first compound 0.5 µM) was 0.474 and the relative viability (NCI-H520; first compound 0.005 µM) was 0.402. It also gave a relative viability (NCI-H520; first compound 0.01581 µM) of 0.373, a relative viability (NCI-H520; first compound 0.05 µM) of 0.446 and a relative viability (NCI-H520; first compound 0.1581 µM) of 0.444. It also gave a relative viability (NCI-H520; first compound 0.5 µM) of 0.433, a relative viability (NCI-H596; first compound 0.005 µM) of 0.873 and a relative viability (NCI-H596; first compound 0.01581 µM) of 0.888. For the same molecule, the relative viability (NCI-H596; first compound 0.05 µM) was 0.939, the relative viability (NCI-H596; first compound 0.5 µM) was 0.885 and the relative viability (PC-3 [JPC-3]; first compound 0.005 µM) was 0.802. For the same molecule, the relative viability (PC-3 [JPC-3]; first compound 0.01581 µM) was 0.869, the relative viability (PC-3 [JPC-3]; first compound 0.05 µM) was 0.94 and the relative viability (PC-3 [JPC-3]; first compound 0.1581 µM) was 0.77. For the same molecule, the relative viability (PC-3 [JPC-3]; first compound 0.5 µM) was 0.837, the relative viability (SK-MES-1; first compound 0.005 µM) was 0.801 and the relative viability (SK-MES-1; first compound 0.01581 µM) was 0.888. For the same molecule, the relative viability (SK-MES-1; first compound 0.05 µM) was 0.98, the relative viability (SK-MES-1; first compound 0.1581 µM) was 0.901 and the relative viability (SK-MES-1; first compound 0.5 µM) was 0.789. For the same molecule, the relative viability (SW 900; first compound 0.005 µM) was 0.624, the relative viability (SW 900; first compound 0.01581 µM) was 0.626 and the relative viability (SW 900; first compound 0.05 µM) was 0.606. For the same molecule, the relative viability (SW 900; first compound 0.1581 µM) was 0.637 and the relative viability (SW 900; first compound 0.5 µM) was 0.565.
